Data taken from patent US9267949B2, “Alkylamino BODIPY dyes as selective fluorescent probes for proteins and mouse embryonic stem cells” (National University of Singapore, priority 2011, dated 2016).

Columns and labels:
[1] = Spectroscopic properties of the BDM library (absorbance and emission maxima); type: physicochemical
[2] = Quantum yield measurements; type: physicochemical; details: referred to Rhodamine B in EtOH, excitation 510 nm, emission integrated 540-800 nm
How it was run: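 Integrated fluorescence emission from 540 to 800 nm was referenced to Rhodamine B in EtOH (Φ=0.70) after excitation at 510 nm. Quantum yield was calculated with correction for solvent refractive index and absorbance at the excitation wavelength.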

[3] = in EtOH, excitation at 510 nm; cited from earlier work

Row | SMILES | λmax (ABS) [1] [nm] | λmax (EM) [1] [nm] | φ (quantum yield) [2] | Quantum yield of standard (ΦRho-B) [3]
1 | CC1=CC(/C=C/c2ccc(Oc3ccc(F)cc3)cc2)=[N+]2C1=C(CCN)c1cccn1[B-]2(F)F [BDM-322] | 559 | 577 | 0.15 | 
2 | CCOc1cccc(/C=C/C2=[N+]3C(=C(CCN)c4cccn4[B-]3(F)F)C(C)=C2)c1 [BDM-323] | 556 | 570 | 0.44 | 
3 | COc1c(/C=C/C2=[N+]3C(=C(CCN)c4cccn4[B-]3(F)F)C(C)=C2)cc(C(C)(C)C)cc1C(C)(C)C [BDM-325] | 557 | 573 | 0.47 | 
4 | CC1=CC(/C=C/c2ccc(OC(F)F)cc2)=[N+]2C1=C(CCN)c1cccn1[B-]2(F)F [BDM-326] | 554 | 565 | 0.71 | 
5 | CC1=CC(/C=C/c2cc(OCc3ccccc3)cc(OCc3ccccc3)c2)=[N+]2C1=C(CCN)c1cccn1[B-]2(F)F [BDM-331] | 554 | 566 | 0.65 | 
6 | CC1=CC(/C=C/c2ccc3c(c2)OC(F)(F)O3)=[N+]2C1=C(CCN)c1cccn1[B-]2(F)F [BDM-332] | 552 | 562 | 0.61 | 
7 | CSc1ccccc1/C=C/C1=[N+]2C(=C(CCN)c3cccn3[B-]2(F)F)C(C)=C1 [BDM-333] | 557 | 575 | 0.30 | 
8 | COc1ccc(/C=C/C2=[N+]3C(=C(CCN)c4cccn4[B-]3(F)F)C(C)=C2)cc1C [BDM-335] | 565 | 591 | 0.78 | 
9 | CCOc1ccccc1/C=C/C1=[N+]2C(=C(CCN)c3cccn3[B-]2(F)F)C(C)=C1 [BDM-336] | 560 | 577 | 0.58 | 
10 | CC1=CC(/C=C/c2c3ccccc3c(C)c3ccccc23)=[N+]2C1=C(CCN)c1cccn1[B-]2(F)F [BDM-340] | 534 | 541 | 0.11 | 
11 | CC1=CC(/C=C/c2ccccc2Oc2ccc(F)cc2)=[N+]2C1=C(CCN)c1cccn1[B-]2(F)F [BDM-341] | 556 | 570 | 0.37 | 
12 | CC1=CC(/C=C/c2cc(C)c(C)cc2C)=[N+]2C1=C(CCN)c1cccn1[B-]2(F)F [BDM-343] | 559 | 577 | 0.28 | 
13 | CC1=CC(/C=C/c2cccc(OC(F)(F)C(F)F)c2)=[N+]2C1=C(CCN)c1cccn1[B-]2(F)F [BDM-345] | 551 | 564 | 0.22 | 
14 | COc1ccc(/C=C/C2=[N+]3C(=C(CCN)c4cccn4[B-]3(F)F)C(C)=C2)c(OC)c1C [BDM-347] | 566 | 591 | 0.57 | 
15 | COc1ccc(/C=C/C2=[N+]3C(=C(CCN)c4cccn4[B-]3(F)F)C(C)=C2)cc1[N+](=O)[O-] [BDM-350] | 556 | 571 | 0.14 | 
16 | CC1=CC(/C=C/c2cccc(N3CCCCC3)c2[N+](=O)[O-])=[N+]2C1=C(CCN)c1cccn1[B-]2(F)F [BDM-356] | 573 | 682 | 0.03 | 
17 | CC1=CC(/C=C/c2cccc(N3CCCC3)c2[N+](=O)[O-])=[N+]2C1=C(CCN)c1cccn1[B-]2(F)F [BDM-357] | 585 | 687 | 0.04 | 
18 | COc1ccc(/C=C/C2=[N+]3C(=C(CCN)c4cccn4[B-]3(F)F)C(C)=C2)c(F)c1 [BDM-359] | 559 | 574 | 0.83 | 
19 | CC1=CC(/C=C/c2ccc(SC(F)(F)F)cc2)=[N+]2C1=C(CCN)c1cccn1[B-]2(F)F [BDM-363] | 553 | 564 | 0.51 | 

Row | SMILES | λmax (ABS) [1] [nm] | λmax (EM) [1] [nm] | φ (quantum yield) [2] | Quantum yield of standard (ΦRho-B) [3]
20 | CC1=CC(/C=C/c2ccccc2OC(F)(F)F)=[N+]2C1=C(CCN)c1cccn1[B-]2(F)F [BDM-365] | 549 | 563 | 0.24 | 
21 | CC1=CC(/C=C/c2ccsc2)=[N+]2C1=C(CCN)c1cccn1[B-]2(F)F [BDM-369] | 554 | 570 | 0.30 | 
22 | CC1=CC(/C=C/c2ccc(-c3ccc(Cl)cc3)o2)=[N+]2C1=C(CCN)c1cccn1[B-]2(F)F [BDM-371] | 590 | 630 | 0.03 | 
23 | COc1ccc(/C=C/C2=[N+]3C(=C(CCN)c4cccn4[B-]3(F)F)C(C)=C2)c(Cl)c1OC [BDM-372] | 561 | 578 | 0.55 | 
24 | CC1=CC(/C=C/c2ccc(N(C)C)c3ccccc23)=[N+]2C1=C(CCN)c1cccn1[B-]2(F)F [BDM-377] | 586 |  | 0.04 | 
25 | CC1=CC(/C=C/c2ccc(OCc3ccc(F)cc3)cc2)=[N+]2C1=C(CCN)c1cccn1[B-]2(F)F [BDM-378] | 563 | 585 | 0.41 | 
26 | CC1=CC(/C=C/c2ccccc2I)=[N+]2C1=C(CCN)c1cccn1[B-]2(F)F [BDM-384] | 551 | 565 | 0.32 | 
27 | CC1=CC(/C=C/c2cccc(C=O)c2)=[N+]2C1=C(CCN)c1cccn1[B-]2(F)F [BDM-391] | 554 | 563 | 0.31 | 
28 | CCOc1cc(/C=C/C2=[N+]3C(=C(CCN)c4cccn4[B-]3(F)F)C(C)=C2)ccc1O [BDM-397] | 570 | 614 | 0.10 | 
29 | COC(=O)c1cc(OC)cc(OC)c1/C=C/C1=[N+]2C(=C(CCN)c3cccn3[B-]2(F)F)C(C)=C1 [BDM-401] | 565 | 590 | 0.85 | 
30 | CC1=CC(/C=C/c2ccc(Br)cc2)=[N+]2C1=C(CCN)c1cccn1[B-]2(F)F [BDM-409] | 558 | 570 | 0.12 | 
31 | CC1=CC(/C=C/c2ccc(-c3ccccc3)c(F)c2)=[N+]2C1=C(CCN)c1cccn1[B-]2(F)F [BDM-425] | 562 | 576 | 0.12 | 
32 | CCOc1ccc(/C=C/C2=[N+]3C(=C(CCN)c4cccn4[B-]3(F)F)C(C)=C2)cc1 [BDM-429] | 564 | 586 | 0.23 | 
33 | CC1=CC(/C=C/c2c(C)nn(C)c2C)=[N+]2C1=C(CCN)c1cccn1[B-]2(F)F [BDM-430] | 565 | 592 | 0.99 | 
34 | CC1=CC(/C=C/c2ccc(Oc3ccc(C(C)(C)C)cc3)cc2)=[N+]2C1=C(CCN)c1cccn1[B-]2(F)F [BDM-435] | 555 | 565 | 0.39 | 
35 | CC1=CC(/C=C/c2ccc(Cl)c(F)c2)=[N+]2C1=C(CCN)c1cccn1[B-]2(F)F [BDM-437] | 555 | 566 | 0.21 | 
36 | CC1=CC(/C=C/c2cc3ccccc3c3ccccc23)=[N+]2C1=C(CCN)c1cccn1[B-]2(F)F [BDM-440] | 563 | 589 | 0.37 | 
37 | CCN(CC)c1ccc2c(-c3ccccc3C(=O)O)c3ccc(=[N+](CC)CC)cc-3oc2c1.[Cl-] [Rhodamine B] |  |  |  | 0.70
